Consider four compounds from patent US8592490B2, “Self-microemulsifying drug delivery systems” (LEK Pharmaceuticals D.D., priority 2006, dated 2013).

Data set [1] in a line: Solubility of celecoxib in water from solid state emulsion systems. Conditions: thermodynamic from solid, sample weight 100 mg, ultrasound. In kind it is physicochemical. On the procedure:
(§1) The solubility of candesartan cilexetil in water was studied at room temperature. Water dispersion (100 ml) of the sample in the laboratory beaker was mixed on the magnetic stirrer for 60 minutes. Afterwards, the part of the dispersion was taken from the beaker, filtered through the 0.45 μm filter and the concentration of candesartan cilexetil was determined by HPLC.
The solubility of celecoxib in water was determined with the same procedure as described in Example 7.

A short description of data set [2]: Stability of micronized vs unmicronised candesartan cilexetil at 40° C. and 75% humidity (impurities). The data set is classed as physicochemical. On the procedure: This approach is not appropriate for candesartan cilexetil, because any mechanical stress applied to the crystals of candesartan cilexetil leads to deterioration of the crystal structure and/or partial or complete (if mechanical stress is long enough) amorphisation, resulting in decreased stability. For example, when micronized candesartan cilexetil with d(0.9)=5 μm is subjected to 40° C. and 75% humidity for 1 month the impurities changed from 0.33% to 0.85%, compared to 0.19% and 0.10% for the unmicronised sample.

The conditions of data set [3]: cited from earlier work.
Data set [4] is described as follows: Solubility of candesartan cilexetil in water from solid state emulsion systems, room temperature. The data set is classed as physicochemical. Conditions: thermodynamic from solid, sample weight 50 mg in 100 ml. The method, then: as §1
Setting [5] is: after 40° C. and 75% humidity for 1 month.

Each structure is given as a SMILES string. In brackets after ≈: the same amount, converted by molar mass.

In data set [1], `Cc1ccc(-c2cc(C(F)(F)F)nn2-c2ccc(S(N)(=O)=O)cc2)cc1` [Celecoxib, 4-[5-(4-methylphenyl)-3-(trifluoromethyl)pyrazol-1-yl]benzenesulfonamide] gave a solubility at 60 min of 0.3 µg/mL (≈ 0.787 µM).
Take `CCOc1nc2cccc(C(=O)OC(C)OC(=O)OC3CCCCC3)c2n1Cc1ccc(-c2ccccc2-c2nnn[nH]2)cc1` (centres unmarked) [micronized candesartan cilexetil, candesartan cilexetil]: the impurities stood at 0.85% in data set [2] (setting [5]) and 0.33% in data set [2] (initial, before storage).
Consider `CCOc1nc2cccc(C(=O)OC(C)OC(=O)OC3CCCCC3)c2n1Cc1ccc(-c2ccccc2-c2nnn[nH]2)cc1` (centres unmarked) [unmicronised sample, candesartan cilexetil], for which the impurities was 0.10% in data set [2] (setting [5]) and 0.19% in data set [2] (initial, before storage).
With `CCOc1nc2cccc(C(=O)OC(C)OC(=O)OC3CCCCC3)c2n1Cc1ccc(-c2ccccc2-c2nnn[nH]2)cc1` (centres unmarked) [Candesartan cilexetil], the “solubility in phosphate buffer” value in data set [3] (phosphate buffer pH=7.0, at 37° C.) is listed as “less than 0.2 μg/ml”. Further, the water solubility in data set [3] (water, at 37° C.) was 0.5 µg/mL (≈ 0.819 µM). Besides, the solubility at 60 min in data set [4] was < 0.1 µg/mL.

For orientation: solubility means how much of the substance goes into solution per volume. Low readings indicate little dissolved substance, high ones much dissolved substance.
